This is an account of results in ChEMBL document CHEMBL5579852, “Promising anti-proliferative indolic benzenesulfonamides alter mechanisms with sulfonamide nitrogen substituents” (Eur J Med Chem, 2024).

Active and inactive are the calls of the source. No cut-off for these calls is given here.

The subject of data set [1] is MES-SA. The data set is described as follows: Induction of apoptosis in human MES-SA cells assessed as caspase 3/7 activation at 1 uM incubated for 24 hrs by live-cell imaging based fluorescence assay. Format: functional.
The subject of data set [2] is MES-SA. The data set is described as follows: Induction of apoptosis in human MES-SA cells assessed as caspase 3/7 activation at 1 uM incubated for 48 to 72 hrs by live-cell imaging based fluorescence assay. Type of data set: functional. Conditions: time lower […], time upper 72.0 hrs.
For data set [3], the system named is MES-SA. The data set is described as follows: Cell cycle distribution in human MES-SA cells assessed as accumulation of cells in G1 phase cells at 100 nM incubated for 24 hrs by Hoechst 33258 staining based flow cytometry (reference value: 60%). Type of data set: functional.
The test system of data set [4] is MES-SA. The data set is described as follows: Cell cycle distribution in human MES-SA cells assessed as accumulation of cells in M phase cells at 100 nM incubated for 24 hrs by Hoechst 33258 staining based flow cytometry (reference value: 1.3 %). Format: functional.
Data set [5] deals with MES-SA. The data set is described as follows: Induction of apoptosis in human MES-SA cells assessed as necrotic cells at 100 nM incubated for 24 hrs by live/dead orange and TUNEL staining based flow cytometry analysis relative to control. Type of data set: functional.
Another data set deals with MCF7. The data set is described as follows: Antiproliferative activity against human MCF7 cells assessed as reduction in cell viability incubated for 72 hrs by CelltiterGlo luminescent assay. Format: functional, cell-based. Particulars: MCF7, 72 h.
For data set [6], the system named is MES-SA. The data set is described as follows: Antiproliferative activity against human MES-SA cells assessed as reduction in cell viability incubated for 72 hrs by CelltiterGlo luminescent assay.
For the next data set, the system named is MDA-MB-468. The data set is described as follows: cells. Conditions: Homo sapiens, MDA-MB-468, 72 h.
Data set [7] relates to CAKI-1. The data set is described as follows: Antiproliferative activity against human CAKI-1 cells assessed as reduction in cell viability incubated for 72 hrs by CelltiterGlo luminescent assay.
Another data set is described as follows: cells. Particulars: Homo sapiens, MDA-MB-468, 72 h.
Data set [8] deals with HeLa. The data set is described as follows: Antiproliferative activity against human HeLa cells assessed as reduction in cell viability incubated for 72 hrs by MTT assay. Type of data set: functional, cell-based.
For data set [9], the system named is MES-SA. The data set is described as follows: Induction of apoptosis in human MES-SA cells assessed as increase in caspase 3/7 activation at 100 nM by live-cell imaging based fluorescence assay. Format: functional. Conditions: time 3.0 day, TDE = time-dependent effect.
The subject of data set [10] is MES-SA. The data set is described as follows: Induction of apoptosis in human MES-SA cells assessed as late apoptotic cells at 100 nM incubated for 24 hrs by live/dead orange and TUNEL staining based flow cytometry analysis relative to control. Type of data set: functional.
The nature of data set [11]: Antiproliferative activity against human HEK293 cells assessed as reduction in cell viability incubated for 72 hrs by CelltiterGlo luminescent assay. Type of data set: toxicity, cell-based.
The test system of data set [12] is MES-SA. The data set is described as follows: Induction of apoptosis in human MES-SA cells assessed as apoptotic cells at 100 nM incubated for 24 hrs by live/dead orange and TUNEL staining based flow cytometry analysis relative to control. Type of data set: functional.
In data set [13] the test system is HeLa. The data set is described as follows: Antiproliferative activity against human HeLa cells assessed as inhibition of cell growth incubated for 72 hrs in presence of verapamil by MTT assay. Format: functional, cell-based.
A short description of data set [14]: Antiproliferative activity against human WM1366 cells assessed as reduction in cell viability incubated for 72 hrs by CelltiterGlo luminescent assay. Particulars: WM1366, 72 h.
The target of another data set is Tubulin (Homo sapiens) (UniProt P68371+Q9H4B7+P0DPH7+P68366+Q13509+Q71U36+P04350+Q3ZCM7+P07437+P68363+Q9BQE3+Q6PEY2+Q13885+Q9BVA1+Q9BUF5). The data set is described as follows: Inhibition of tubulin polymerization in human MES-SA cells assessed as appearance of spherical shaped cells at 10 nM incubated for 24 hrs by DAPI staining based confocal microscopy analysis. Type of data set: cell-based.

The subject of data set [15] is MES-SA. The data set is described as follows: Cell cycle distribution in human MES-SA cells assessed as accumulation of cells in G2 phase cells at 100 nM incubated for 24 hrs by Hoechst 33258 staining based flow cytometry (reference value: 12 %). Format: functional.
A further data set deals with A-375. The data set is described as follows: Antiproliferative activity against human A-375 cells assessed as reduction in cell viability incubated for 72 hrs by CelltiterGlo luminescent assay. Conditions: A-375, 72 h.
Data set [16] deals with MES-SA. The data set is described as follows: Cell cycle distribution in human MES-SA cells assessed as accumulation of cells in G2/M phase cells at 100 nM incubated for 24 hrs by Hoechst 33258 staining based flow cytometry (reference value: 13.3 %). Type of data set: functional.
Data set [17] relates to HeLa. The data set is described as follows: Antiproliferative activity against human HeLa cells assessed as reduction in cell viability incubated for 72 hrs by CelltiterGlo luminescent assay. Format: functional, cell-based.
In data set [18] the test system is MES-SA. The data set is described as follows: Induction of apoptosis in human MES-SA cells assessed as live cells at 100 nM incubated for 24 hrs by live/dead orange and TUNEL staining based flow cytometry analysis relative to control. Format: functional.
Data set [19] relates to HeLa. The data set is described as follows: Antiproliferative activity against human HeLa cells assessed as inhibition of cell growth incubated for 72 hrs in absence of verapamil by MTT assay. Type of data set: functional, cell-based.
Data set [20] in a line: Antiproliferative activity against human Melmet 5 cells assessed as reduction in cell viability incubated for 72 hrs by CelltiterGlo luminescent assay. Particulars: Melmet 5, 72 h.
The test system of another data set is HT-1080. The data set is described as follows: Antiproliferative activity against human HT-1080 cells assessed as reduction in cell viability incubated for 72 hrs by CelltiterGlo luminescent assay. Particulars: HT-1080, 72 h.
A short description of data set [21]: Antiproliferative activity against human Hermes 3C cells assessed as reduction in cell viability incubated for 72 hrs by CelltiterGlo luminescent assay. Format: toxicity, cell-based.
Data set [22] has as its system MES-SA. The data set is described as follows: Cell cycle distribution in human MES-SA cells assessed as accumulation of cells in S phase cells at 100 nM incubated for 24 hrs by Hoechst 33258 staining based flow cytometry (reference value: 27 %). Type of data set: functional.
Another data set relates to BT-474. The data set is described as follows: Antiproliferative activity against human BT-474 cells assessed as reduction in cell viability incubated for 72 hrs by CelltiterGlo luminescent assay. Particulars: BT-474, 72 h.
The nature of data set [23]: Antiproliferative activity against human RPE-1 cells assessed as reduction in cell viability incubated for 72 hrs by CelltiterGlo luminescent assay. Type of data set: toxicity, cell-based. Particulars: RPE-1 cells (TERT-RPE1).
Data set [24] deals with CAKI-1. The data set is described as follows: Antiproliferative activity against human CAKI-1 cells assessed as reduction in cell viability incubated for 72 hrs by CelltiterGlo luminescent assay. Conditions: CAKI-1, 72 h.
Data set [25] concerns MES-SA. The data set is described as follows: Induction of apoptosis in human MES-SA cells assessed as dead cells at 100 nM incubated for 24 hrs by live/dead orange and TUNEL staining based flow cytometry analysis relative to control. Type of data set: functional.

Description for MDA-MB-468: Antiproliferative activity against human MDA-MB-468 cells assessed as reduction in cell viability incubated for 72 hrs by CelltiterGlo luminescent assay

For `CN[C@@H]1C[C@H]2O[C@@](C)([C@@H]1OC)n1c3ccccc3c3c4c(c5c6ccccc6n2c5c31)C(=O)NC4`, the outcome in the data set on MES-SA [1] was Active. The result in the data set with MES-SA [2] was inactive.
For the molecule `COc1cc(S(=O)(=O)N(C)c2ccc3c(c2)c(C#N)cn3C)cc(OC)c1OC`, the Activity in the data set with MES-SA [3] is 4%; with MES-SA [4] it was 75.3%; in the data set on MES-SA [5], 2.3%; in the data set on MES-SA [9] it was “Tde”; in the data set on MES-SA [10], 1.3%; with MES-SA [12], 5%. In addition, the Activity in the data set with MES-SA [15] came out at 10%; in the data set with MES-SA [16], 83.6%; with MES-SA [18], 91.4%; with MES-SA [22] it was 6%. The IC50 in the data set on MCF7 is 12.3 nM; in the data set with MES-SA [6], 6.3 nM; in the data set on MDA-MB-468, 28 nM; in the data set “cells” it was 69.5 nM; in the data set on HeLa [8] it was 8 nM; in the data set on HeLa [13], 24.6 nM. The IC50 in [14] stood at 20.2 nM; in the data set on A-375 it was 11.7 nM; with HeLa [17], 16 nM; in the data set with HeLa [19] it was 25.7 nM; in data set [20], 10.6 nM; in the data set with HT-1080 it was 15.3 nM. In the data set with BT-474, the IC50 was determined as 16.3 nM. In addition, in the data set with CAKI-1 [7], the result was inactive. Also, the half-inhibitory concentration (IC50) at 72 h in [11] worked out at 29 nM; in data set [21] it was 45.6 nM; in data set [23], 13.2 nM. Further, the inhibition result at Tubulin (Homo sapiens) is “Active”.
For the molecule `COc1cc(S(=O)(=O)Nc2ccc3c(c2)c(C#N)cn3C)cc(OC)c1OC`, the Activity is 4% in the data set with MES-SA [3]; 67.7% with MES-SA [4]; 4.5% in the data set with MES-SA [5]; “Tde” with MES-SA [9]; 1.8% in the data set with MES-SA [10]; 5.8% with MES-SA [12]. The Activity in the data set on MES-SA [15] was 22%; with MES-SA [16], 83.6%; in the data set on MES-SA [18] it was 88%; with MES-SA [25] it was 12%; in the data set with MES-SA [22], 6%. Moreover, the IC50 amounted to 12.1 nM in the data set on MCF7; 32.4 nM in the data set with CAKI-1 [24]; 11.8 nM with MES-SA [6]; 11.8 nM in the data set on MDA-MB-468; 12.4 nM in the data set “cells”; 43 nM in the data set with HeLa [8]. Also, the IC50 worked out at 29.1 nM in the data set on HeLa [13]; 65.7 nM in data set [14]; 33.2 nM with A-375; 13.3 nM in the data set with HeLa [17]; 43 nM in the data set with HeLa [19]; 1.6 nM in data set [20]. The values for the IC50 in the data set on HT-1080 and with BT-474 were 12.1 nM and 57.5 nM, respectively. Moreover, the IC50 at 72 h in data set [11] is 18.2 nM; in data set [21], 87.1 nM; in data set [23], 52.8 nM. In addition, at Tubulin (Homo sapiens), the inhibition result is “inactive”.
